The values that follow come from US8575156B2, “Cyclic inhibitors of 11β-hydroxysteroid dehydrogenase 1” (Vitae Pharmaceuticals, Inc., priority 2007, dated 2013).

pIC50: −log10 of the molar value. Where two headings read alike, the source gives them in different places.

This assay deals with 11β-HSD1 (Homo sapiens, UniProt P28845). The assay is described as follows: biochemical. Particulars: for pIC50: IC50 Range, Biological Test Example 1, microsomes from CHO cells overexpressing human 11β-HSD1; for inhibition at 0.1111 µM: read-out: Average % inhibition at 111.1 nM, Biological Test Example 1, 111.1 nM compound.
11β-HSD1, sequence (P28845 whole entry): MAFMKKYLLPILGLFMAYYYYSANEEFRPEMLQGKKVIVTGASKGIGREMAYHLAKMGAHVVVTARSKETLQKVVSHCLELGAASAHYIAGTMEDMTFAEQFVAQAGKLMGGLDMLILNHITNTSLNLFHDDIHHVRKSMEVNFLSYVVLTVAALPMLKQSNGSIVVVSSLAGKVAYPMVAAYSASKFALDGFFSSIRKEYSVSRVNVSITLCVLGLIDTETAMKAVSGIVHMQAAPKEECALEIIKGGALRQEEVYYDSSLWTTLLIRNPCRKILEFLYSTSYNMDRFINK
[1] abbreviates: read-out: Average % inhibition at 100 nM, Biological Test Example 1, 100 nM.
The mark [2] stands for this setting: read-out: Average % inhibition at 100 nM, Biological Test Example 1, 100 nM compound.

The pIC50 is −log10 of the IC50, conventionally taken in molar units. Lower therefore signals a large IC50. In general, inhibition refers to the percentage by which the read-out fell short of the control. Compound `C[C@@H](c1ccc(-c2ccccc2)cc1)N1CC[C@](CCO)(c2ccccc2)OC1=O` [EXAMPLE 489, (S)-3-((S)-1-(biphenyl-4-yl)ethyl)-6-(2-hydroxyethyl)-6-phenyl-1,3-oxazinan-2-one] gave a pIC50 above 7.00. Moreover, the inhibition at 0.1 µM under setting [1] was 98.3%.

As for `C[C@@H](c1ccc(Br)cc1)N1CC[C@](CCN2CC[C@@H](F)C2)(c2ccc(F)cc2)OC1=O` [EXAMPLE 378, (R)-3-((S)-1-(4-bromophenyl)ethyl)-6-(4-fluorophenyl)-6-(2-((R)-3-fluoropyrrolidin-1-yl)ethyl)-1,3-oxazinan-2-one], the pIC50 was above 7.00. Also, the inhibition at 0.1 µM under setting [1] was determined as 70%.

`C[C@@H](c1ccc(Cl)cc1F)N1CC[C@](CC(C)(C)C(N)=O)(c2ccc(F)cc2)OC1=O` [EXAMPLE 578, 3-((R)-3-((S)-1-(4-chloro-2-fluorophenyl)ethyl)-6-(4-fluorophenyl)-2-oxo-1,3-oxazinan-6-yl)-2,2-dimethylpropanamide] gave a pIC50 above 7.00. Further, the inhibition at 0.1 µM under setting [1] was found to be 97.7%.

`C[C@@H](c1ccc(F)cc1)N1CC[C@](CCC(N)=O)(c2ccccc2)OC1=O` [EXAMPLE 415, 3-((R)-3-((S)-1-(4-fluorophenyl)ethyl)-2-oxo-6-phenyl-1,3-oxazinan-6-yl)propanamide] had a pIC50 above 7.00. Further, under setting [1], the inhibition at 0.1 µM is 87.6%.

With `CC(C)NS(=O)(=O)c1ccc(-c2cccc(N3CCC(C)(c4ccccc4)OC3=O)c2)cc1` (centres unmarked) [EXAMPLE 13, N-isopropyl-3′-(6-methyl-2-oxo-6-phenyl-1,3-oxazinan-3-yl)biphenyl-4-sulfonamide], the pIC50 was 6.00 to 7.00 and the inhibition at 0.1111 µM came out at 19.2%.

Compound `CC(CO)C[C@]1(c2ccc(F)cc2)CCN([C@@H](C)c2ccc(Br)cc2)C(=O)O1` (single isomer, unassigned) [EXAMPLE 577 Isomer 1] gave a pIC50 above 7.00. For the same compound, the inhibition at 0.1 µM under setting [1] worked out at 99.5%.

In turn, `COc1ccc([C@H](C)N2CC[C@](CCNS(C)(=O)=O)(c3ccc(F)cc3)OC2=O)cc1` [EXAMPLE 301, N-(2-((S)-6-(4-fluorophenyl)-3-((S)-1-(4-methoxyphenyl)ethyl)-2-oxo-1,3-oxazinan-6-yl)ethyl)methanesulfonamide] showed a pIC50 above 7.00. For the same compound, the inhibition at 0.1 µM under setting [2] was determined as 86.7%.

`COc1ccc([C@H](C)N2CC[C@](CC(C)(C)O)(c3ccccc3)OC2=O)cc1` [EXAMPLE 427, (S)-6-(2-hydroxy-2-methylpropyl)-3-((S)-1-(4-methoxyphenyl)ethyl)-6-phenyl-1,3-oxazinan-2-one] showed a pIC50 above 7.00. Moreover, under setting [1], the inhibition at 0.1 µM was 97.8%.

Consider `C=CCC1(c2ccc(F)cc2)CCN([C@@H](C)c2ccccc2)C(=O)O1` (stereo partly drawn) [EXAMPLE 95, 6-allyl-6-(4-fluorophenyl)-3-((S)-1-phenylethyl)-1,3-oxazinan-2-one], for which the negative-log IC50 (pIC50) was above 7.00 and the inhibition at 0.1111 µM amounted to 97.3%.

Take `C[C@@H](c1ccc(Br)cc1)N1CC[C@](CCO)(c2ccccc2)OC1=O` [EXAMPLE 396, (S)-3-((S)-1-(4-bromophenyl)ethyl)-6-(2-hydroxyethyl)-6-phenyl-1,3-oxazinan-2-one]: the pIC50 was above 7.00.

Compound `COc1ccc([C@H](C)N2CC[C@](CC(C)(C)O)(c3ccc(F)cc3)OC2=O)cc1` [EXAMPLE 425, (S)-6-(4-fluorophenyl)-6-(2-hydroxy-2-methylpropyl)-3-((S)-1-(4-methoxyphenyl)ethyl)-1,3-oxazinan-2-one] gave a pIC50 above 7.00. Further, the inhibition at 0.1 µM under setting [1] was determined as 96.2%.

Take `C[C@@H](c1ccccc1)N1CC[C@@](CCO)(c2ccc(F)cc2)OC1=O` (single isomer, unassigned) [EXAMPLE 97 Isomer 1]: the pIC50 was 6.00 to 7.00 and the inhibition at 0.1111 µM stood at 52.8%.

With `CC1(c2ccccc2)CCN(c2cccc(-c3ccc(S(C)(=O)=O)cc3)c2)C(=O)O1` (centres unmarked) [EXAMPLE 11, 3-(4′-Methanesulfonyl-biphenyl-3-yl)-6-methyl-6-phenyl-[1,3]oxazinan-2-one], the pIC50 is 6.00 to 7.00 and the inhibition at 0.1111 µM was found to be 28.4%.

`C[C@@H](c1ccc(Br)cc1)N1CCC(CCCO)(c2ccc(F)cc2)OC1=O` (single isomer, unassigned) [EXAMPLE 227 Isomer 1]: the pIC50 was above 7.00.

As for `CC[C@@H](c1ccc(Br)cc1)N1CC[C@](CCC(N)=O)(c2ccccc2)OC1=O` [EXAMPLE 398, 3-((R)-3-((S)-1-(4-bromophenyl)propyl)-2-oxo-6-phenyl-1,3-oxazinan-6-yl)propanamide], the pIC50 was above 7.00. Under setting [1], the inhibition at 0.1 µM was found to be 97.7%.

In the case of `CC(C#N)C[C@]1(c2ccc(F)cc2)CCN([C@@H](C)c2ccc(Br)cc2)C(=O)O1` (stereo partly drawn) [EXAMPLE 520, 3-((R)-3-((S)-1-(4-bromophenyl)ethyl)-6-(4-fluorophenyl)-2-oxo-1,3-oxazinan-6-yl)-2-methylpropanenitrile], the pIC50 is above 7.00. Moreover, under setting [1], the inhibition at 0.1 µM was 98%.

On to `O=C1OC(CCO)(c2ccc(F)cc2)CCN1c1ccc(F)c(-c2ccc(F)cc2F)c1` (centres unmarked) [EXAMPLE 105, 6-(4-fluorophenyl)-6-(2-hydroxyethyl)-3-(2′,4′,6-trifluorobiphenyl-3-yl)-1,3-oxazinan-2-one], for which the pIC50 was above 7.00 and the inhibition at 0.1111 µM stood at 87.4%.

Regarding `CC(=O)NCCC1(c2ccccc2)CCN(c2cccc(-c3ccc(F)cc3F)c2)C(=O)O1` (centres unmarked) [EXAMPLE 98, N-(2-(3-(2′,4′-difluorobiphenyl-3-yl)-2-oxo-6-phenyl-1,3-oxazinan-6-yl)ethyl)acetamide], the pIC50 was above 7.00 and the inhibition at 0.1111 µM was 73.4%.

For `CC1(c2ccccc2)CCN(c2cccc(-c3ccc(O)cc3)c2)C(=O)O1` (centres unmarked) [EXAMPLE 43, 3-(4′-hydroxybiphenyl-3-yl)-6-methyl-6-phenyl-1,3-oxazinan-2-one], the pIC50 was above 7.00 and the inhibition at 0.1111 µM was determined as 77.7%.

In the case of `COc1ccccc1-c1cccc(N2CCC(C)(c3ccccc3)OC2=O)c1` (centres unmarked) [EXAMPLE 21, 3-(2′-methoxybiphenyl-3-yl)-6-methyl-6-phenyl-1,3-oxazinan-2-one], the pIC50 is above 7.00 and the inhibition at 0.1111 µM is 76.7%.

Take `O=C1OC(CCO)(c2ccccc2F)CCN1c1cccc(-c2ccc(F)cc2F)[n+]1[O-]` (centres unmarked) [EXAMPLE 132, 2-(2,4-difluorophenyl)-6-(6-(2-fluorophenyl)-6-(2-hydroxyethyl)-2-oxo-1,3-oxazinan-3-yl)pyridine 1-oxide]: the pIC50 is 6.00 to 7.00 and the inhibition at 0.1111 µM was found to be 30.4%.

Turning to `COC(=O)c1cccc(-c2cccc(N3CCC(C)(c4ccccc4)OC3=O)c2)c1` (centres unmarked) [EXAMPLE 38, methyl 3′-(6-methyl-2-oxo-6-phenyl-1,3-oxazinan-3-yl)biphenyl-3-carboxylate], the pIC50 was 6.00 to 7.00 and the inhibition at 0.1111 µM is 17.8%.

Regarding `C=CC[C@@]1(c2ccc(F)cc2)CCN([C@H](C)c2ccc(Cl)c(F)c2)C(=O)O1` (single isomer, unassigned) [EXAMPLE 497 Isomer 3], the pIC50 was below 7.00.

In turn, `C[C@@H](c1ccc(Br)cc1)N1CC[C@](CCN2CCCS2(=O)=O)(c2ccccc2)OC1=O` [EXAMPLE 513, (S)-3-((S)-1-(4-bromophenyl)ethyl)-6-(2-(1-dioxo-isothiazolidin-2-yl)ethyl)-6-phenyl-1,3-oxazinan-2-one] gave a pIC50 above 7.00. Moreover, under setting [1], the inhibition at 0.1 µM stood at 84.4%.

As to `C=CC[C@]1(c2ccc(F)cc2)CCN([C@@H](C)c2ccc(C3CC3)cc2)C(=O)O1` [EXAMPLE 123, (R)-6-allyl-3-((S)-1-(4-cyclopropylphenyl)ethyl)-6-(4-fluorophenyl)-1,3-oxazinan-2-one], the pIC50 was above 7.00 and the inhibition at 0.1111 µM came out at 97.6%.

For the compound `CC1(c2ccccc2)CCN(c2cccc(-c3ccccc3S(C)(=O)=O)c2)C(=O)O1` (centres unmarked) [EXAMPLE 15, 6-methyl-3-(2′-(methylsulfonyl)biphenyl-3-yl)-6-phenyl-1,3-oxazinan-2-one], the pIC50 is 6.00 to 7.00 and the inhibition at 0.1111 µM was found to be 38.5%.

Turning to `C[C@@H](c1ccc(-c2ccc(F)cc2)cc1)N1CC[C@](CCN2CC[C@H](F)C2)(c2ccc(F)cc2)OC1=O` [EXAMPLE 465, (R)-3-((S)-1-(4′-fluorobiphenyl-4-yl)ethyl)-6-(4-fluorophenyl)-6-(2-((S)-3-fluoropyrrolidin-1-yl)ethyl)-1,3-oxazinan-2-one], the pIC50 is above 7.00. The inhibition at 0.1 µM under setting [1] is 65%.

With `C=CC[C@]1(c2ccc(F)cc2)CCN([C@@H](C)c2cccc(C(C)(C)O)c2)C(=O)O1` [EXAMPLE 364, (R)-6-allyl-6-(4-fluorophenyl)-3-((S)-1-(3-(2-hydroxypropan-2-yl)phenyl)ethyl)-1,3-oxazinan-2-one], the pIC50 is above 7.00. Besides, the inhibition at 0.1 µM under setting [1] is 66.3%.

`COCCNC(=O)c1cccc(-c2cccc(N3CCC(C)(c4ccccc4)OC3=O)c2)c1` (centres unmarked) [EXAMPLE 18, N-(2-methoxyethyl)-3′-(6-methyl-2-oxo-6-phenyl-1,3-oxazinan-3-yl)biphenyl-3-carboxamide]: the pIC50 is 6.00 to 7.00 and the inhibition at 0.1111 µM turned out to be 7.2%.

Turning to `CC(N)c1ccc(-c2ccc([C@H](C)N3CC[C@](CCCO)(c4ccccc4)OC3=O)cc2)s1` (stereo partly drawn) [EXAMPLE 251, (6R)-3-((1S)-1-(4-(5-(1-aminoethyl)thiophen-2-yl)phenyl)ethyl)-6-(3-hydroxypropyl)-6-phenyl-1,3-oxazinan-2-one], the pIC50 was above 7.00. Also, the inhibition at 0.1 µM under setting [2] is 90.9%.

In turn, `C[C@@H](c1ccc(CC(C)(C)O)cc1)N1CC[C@](CCCO)(c2ccccc2)OC1=O` [EXAMPLE 312, (R)-3-((S)-1-(4-(2-hydroxy-2-methylpropyl)phenyl)ethyl)-6-(3-hydroxypropyl)-6-phenyl-1,3-oxazinan-2-one] showed a pIC50 above 7.00. The inhibition at 0.1 µM (read-out: Average % inhibition at 100 nM) is 85.7%.
